We go through 2 molecules from article PMC5971468, “Small molecules that inhibit the late stage of Munc13-4–dependent secretory granule exocytosis in mast cells” (The Journal of Biological Chemistry, 2018).

The target in assay [1] is T1, Munc13-4 (Homo sapiens, UniProt Q70J99).
T1 construct: gene UNC13D; His6-tagged human Munc13-4 protein produced in insect Sf9 cells
The experiment in a line: SNARE-dependent liposome lipid-mixing FRET assay with purified Munc13-4 + Ca2+; liposome flotation binding assay. It counts as biochemical.

Assay [2] deals with T1, Munc13-4. As to the kind of experiment: SNARE-dependent liposome lipid-mixing FRET assay with purified Munc13-4 + Ca2+. In kind it is biochemical.

T1 sequence (Q70J99 whole entry): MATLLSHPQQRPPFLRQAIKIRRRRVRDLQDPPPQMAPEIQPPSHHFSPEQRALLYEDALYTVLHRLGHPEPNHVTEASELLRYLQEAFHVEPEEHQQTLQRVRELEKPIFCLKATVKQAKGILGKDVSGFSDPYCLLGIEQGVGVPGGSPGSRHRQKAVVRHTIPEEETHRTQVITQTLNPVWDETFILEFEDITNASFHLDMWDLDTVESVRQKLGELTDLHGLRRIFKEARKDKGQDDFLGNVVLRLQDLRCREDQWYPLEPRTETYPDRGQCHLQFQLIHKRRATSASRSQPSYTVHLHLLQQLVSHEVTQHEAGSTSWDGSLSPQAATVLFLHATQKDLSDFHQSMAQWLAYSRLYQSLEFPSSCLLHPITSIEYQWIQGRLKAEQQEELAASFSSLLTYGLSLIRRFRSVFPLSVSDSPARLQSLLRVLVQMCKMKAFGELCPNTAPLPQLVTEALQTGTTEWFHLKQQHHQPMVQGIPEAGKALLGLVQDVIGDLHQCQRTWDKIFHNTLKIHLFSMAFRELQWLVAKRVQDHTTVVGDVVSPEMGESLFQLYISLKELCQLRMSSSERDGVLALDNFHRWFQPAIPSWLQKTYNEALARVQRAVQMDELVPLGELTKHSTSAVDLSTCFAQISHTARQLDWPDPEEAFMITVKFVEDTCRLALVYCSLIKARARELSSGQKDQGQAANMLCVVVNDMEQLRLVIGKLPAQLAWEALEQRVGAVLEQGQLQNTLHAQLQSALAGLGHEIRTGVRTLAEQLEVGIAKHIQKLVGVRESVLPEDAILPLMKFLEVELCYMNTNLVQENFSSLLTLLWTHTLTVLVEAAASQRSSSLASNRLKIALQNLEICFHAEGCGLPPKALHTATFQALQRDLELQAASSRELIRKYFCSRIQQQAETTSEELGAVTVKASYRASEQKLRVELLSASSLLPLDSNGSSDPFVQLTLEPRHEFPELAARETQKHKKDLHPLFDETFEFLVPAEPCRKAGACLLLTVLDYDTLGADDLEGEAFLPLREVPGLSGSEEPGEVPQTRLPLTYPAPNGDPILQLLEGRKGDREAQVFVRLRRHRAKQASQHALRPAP
T1 sequence (P32851 whole entry partner): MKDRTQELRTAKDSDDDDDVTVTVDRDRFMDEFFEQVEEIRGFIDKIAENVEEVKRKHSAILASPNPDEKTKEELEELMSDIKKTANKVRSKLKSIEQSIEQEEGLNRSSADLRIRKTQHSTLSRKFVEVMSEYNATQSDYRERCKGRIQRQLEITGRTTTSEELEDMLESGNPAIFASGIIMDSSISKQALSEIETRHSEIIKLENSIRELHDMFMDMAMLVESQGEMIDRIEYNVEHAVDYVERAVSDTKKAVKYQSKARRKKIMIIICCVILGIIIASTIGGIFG
T1 sequence (P60879 whole entry partner): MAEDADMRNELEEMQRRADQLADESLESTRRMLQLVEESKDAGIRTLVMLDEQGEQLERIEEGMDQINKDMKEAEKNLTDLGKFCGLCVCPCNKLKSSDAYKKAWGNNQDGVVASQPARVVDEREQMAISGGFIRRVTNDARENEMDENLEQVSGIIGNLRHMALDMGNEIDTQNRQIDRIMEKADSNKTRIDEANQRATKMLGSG
T1 sequence (P63044 2-116 partner): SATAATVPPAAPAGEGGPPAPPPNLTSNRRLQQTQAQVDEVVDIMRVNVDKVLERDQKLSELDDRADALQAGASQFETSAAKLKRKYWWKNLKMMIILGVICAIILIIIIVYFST

Take `CCn1nc(C(=O)N(CCCN(C)C)c2nc3c(C)ccc(Cl)c3s2)cc1C` [bexin-1]: the IC50 (in general, the point on the concentration scale where inhibition reaches its midpoint) in assay [1] was roughly 5 µM.

Consider `COc1ccc2sc(N(CCCN(C)C)C(=O)c3ccc(S(=O)(=O)N4CCCc5ccccc54)cc3)nc2c1` [bexin-3], for which the 50% inhibitory concentration (IC50) in assay [2] was roughly 5 µM.
